From patent US20200131669A1, “CYCLIC PEPTIDE COMPOUND HAVING HIGH MEMBRANE PERMEABILITY, AND LIBRARY CONTAINING SAME” (Chugai Seiyaku Kabushiki Kaisha, priority 2017, published 2020)
Like-named read-outs stand apart in the source and are kept apart here. Starred links: 1 amine or outer side, 2 acyl side, 3 side chain; linkers in the order of their positions; H or OH if unused. Positions of bridges follow the written chain, without caps; N, C: chain ends. Non-standard residues stand in square brackets, D forms with d. Residues, ends and D or L forms follow the SMILES beside them. *: point of attachment. NMeAbu(3,3-F2-piperidino) = CN[C@@H](CCN1CCCC(F)(F)C1)C(=O)O; X6 = CN([C@@H](CCN1CCC(F)(F)CC1)C(=O)[*:2])[*:1]; 3Pal(6-NMe2) = CN(C)c1ccc(C[C@H](N)C(=O)O)cn1; NMePhe(3-Cl) = CN[C@@H](Cc1cccc(Cl)c1)C(=O)O; N(isopentyl)Gly = CC(C)CCNCC(=O)O; Hyp = O=C(O)[C@@H]1C[C@@H](O)CN1; NMeF = CN[C@@H](Cc1ccccc1)C(=O)O; NMeGABA = CN(CCCC(=O)[*:2])[*:1]; NMeI = CC[C@H](C)[C@H](NC)C(=O)O; NMeL = CN[C@@H](CC(C)C)C(=O)O; NMeV = CN[C@H](C(=O)O)C(C)C; NMeS = CN[C@@H](CO)C(=O)O; NMeA = CN[C@@H](C)C(=O)O; Piperidide = C1CCN(*)CC1; NBuGly = CCCCNCC(=O)O; Isopentyl = CC(C)CC*; Sar = CNCC(=O)O; tBu = CC(C)(C)*; Propyl = CCC*

Assay: Caco-2 membrane permeability, improved method as used in the following Examples (96-well, 20 to 24 h preincubation)
Assay type: in vitro ADME
Details: human
Procedure, shortened: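 Papp (cm/sec) was derived from LC/MS of basal samples collected 180 min after apical dosing in FaSSIF/HBSS pH 6.0 with 1% DMSO, against a basal HBSS pH 7.4 receiver containing 4% BSA. Three-week Caco-2 cultures were first preincubated with compound in DMEM+FaSSIF at 37 °C for 20–24 h.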

Row | SMILES | Papp A→B at 180 min (Caco-2, Caco-2) | Papp A→B at 180 min (Papp, Caco-2 membrane permeability, improved method, read-out: Caco-2)
1 | CCO[C@@H]1C[C@H]2C(=O)N[C@@H]([C@@H](C)O)C(=O)N(C)[C@@H](CC(C)C)C(=O)N(C)[C@@H](CC(C)C)C(=O)N(C)[C@@H](CC(C)C)C(=O)N[C@H](C(=O)N3CCCCC3)CC(=O)N[C@H](CC(C)C)C(=O)N(C)[C@@H]([C@@H](C)CC)C(=O)N3CCC[C@H]3C(=O)N(C)[C@@H](CC(C)C)C(=O)N[C@@H](COC(C)(C)C)C(=O)N2C1 [pd385] ([dL][NMeI]P[NMeL]S(tBu)[Hyp](Et)T[NMeL][NMeL][NMeL]D-Piperidide; lactam N-11) | 3.4 ×10⁻⁶ cm/s | –
2 | CCCCN1CC(=O)N(C)[C@@H](CC(C)C)C(=O)N[C@@H](COC(C)(C)C)C(=O)N(C)[C@@H](Cc2ccccc2)C(=O)N(C)[C@@H](C(C)C)C(=O)N[C@H](C(=O)N2CCCCC2)CC(=O)N[C@H](C)C(=O)N(C)[C@@H](Cc2ccccc2)C(=O)N[C@@H](CC(C)C)C(=O)N(C)[C@@H](CCN2CCCC(F)(F)C2)C(=O)N[C@@H]([C@@H](C)O)C1=O [pd386] ([dA][NMeF]L[NMeAbu(3,3-F2-piperidino)]T[NBuGly][NMeL]S(tBu)[NMeF][NMeV]D-Piperidide; lactam N-11) | 2.3 ×10⁻⁶ cm/s | –
3 | CC(C)C[C@@H]1NC(=O)[C@H](Cc2ccccc2)N(C)C(=O)[C@@H](C(C)C)NC(=O)C[C@@H](C(=O)N2CCCCC2)NC(=O)[C@H](C(C)C)N(C)C(=O)[C@H](Cc2ccccc2)N(C)C(=O)[C@H](COC(C)(C)C)NC(=O)[C@H](CCN2CCCC(F)(F)C2)N(C)C(=O)CN(C)C(=O)[C@H]([C@@H](C)O)NC(=O)[C@H](CC(C)C)N(C)C1=O [pd387] ([dV][NMeF]L[NMeL]T[Sar][NMeAbu(3,3-F2-piperidino)]S(tBu)[NMeF][NMeV]D-Piperidide; lactam N-11) | 3.5 ×10⁻⁶ cm/s | –
4 | CCCCN1CC(=O)N(C)[C@@H](C(C)C)C(=O)N[C@@H](CC(C)C)C(=O)N(C)[C@@H](Cc2ccccc2)C(=O)N(C)[C@@H](CCN2CCCC(F)(F)C2)C(=O)N[C@H](C(=O)N2CCCCC2)CC(=O)N[C@H](C)C(=O)N(C)[C@@H](Cc2ccccc2)C(=O)N[C@@H](CC(C)C)C(=O)N(C)[C@@H](CC(C)C)C(=O)N[C@@H]([C@@H](C)O)C1=O [pd388] ([dA][NMeF]L[NMeL]T[NBuGly][NMeV]L[NMeF][NMeAbu(3,3-F2-piperidino)]D-Piperidide; lactam N-11) | 1.8 ×10⁻⁶ cm/s | –
5 | CC(C)C[C@@H]1NC(=O)[C@H](Cc2ccccc2)N(C)C(=O)[C@H](Cc2ccccc2)N(C)C(=O)[C@H](CC(C)C)NC(=O)[C@H](CC(C)C)N(C)C(=O)CCCN(C)C(=O)C[C@@H](C(=O)N2CCCCC2)NC(=O)[C@H](C)N(C)C(=O)[C@H](CCN2CCCC(F)(F)C2)N(C)C(=O)[C@H]([C@@H](C)O)NC(=O)[C@H](CC(C)C)N(C)C1=O [pd390] ([NMeGABA][NMeL]L[NMeF][NMeF]L[NMeL]T[NMeAbu(3,3-F2-piperidino)][NMeA]D-Piperidide; lactam N-11) | 2 ×10⁻⁶ cm/s | –
6 | CC(C)C[C@@H]1NC(=O)[C@H](C)N(C)C(=O)C[C@@H](C(=O)N2CCCCC2)NC(=O)[C@H](C(C)C)N(C)C(=O)CN(C)C(=O)[C@H]([C@@H](C)O)NC(=O)[C@H](CCN2CCCC(F)(F)C2)N(C)C(=O)[C@H](Cc2ccccc2)N(C)C(=O)[C@H](CC(C)C)NC(=O)[C@H](Cc2ccccc2)N(C)C(=O)[C@H](CC(C)C)N(C)C1=O [pd391] ([NMeA]L[NMeL][NMeF]L[NMeF][NMeAbu(3,3-F2-piperidino)]T[Sar][NMeV]D-Piperidide; lactam N-11) | 2.4 ×10⁻⁶ cm/s | –
7 | CCCCN1CC(=O)N(C)[C@@H](CCN2CCCC(F)(F)C2)C(=O)N[C@H](C(=O)N2CCCCC2)CC(=O)N(C)[C@@H](C)C(=O)N[C@@H](CC(C)C)C(=O)N(C)[C@@H](CC(C)C)C(=O)N(C)[C@@H](Cc2ccccc2)C(=O)N[C@@H](CC(C)C)C(=O)N(C)[C@@H](Cc2ccccc2)C(=O)N(C)[C@@H](C)C(=O)N[C@@H]([C@@H](C)O)C1=O [pd392] ([NMeA]L[NMeL][NMeF]L[NMeF][NMeA]T[NBuGly][NMeAbu(3,3-F2-piperidino)]D-Piperidide; lactam N-11) | 3.5 ×10⁻⁶ cm/s | –
8 | CC(C)CCOC[C@@H]1NC(=O)[C@H](CCN2CCCC(F)(F)C2)N(C)C(=O)[C@H](Cc2ccccc2)N(C)C(=O)CN(C)C(=O)[C@H]([C@@H](C)O)NC(=O)[C@H](CC(C)C)N(C)C(=O)[C@H](CC(C)C)NC(=O)[C@H](Cc2ccccc2)N(C)C(=O)CN(C)C(=O)C[C@@H](C(=O)N2CCCCC2)NC(=O)[C@H](CC(C)C)N(C)C1=O [pd393] ([Sar][NMeF]L[NMeL]T[Sar][NMeF][NMeAbu(3,3-F2-piperidino)]S(Isopentyl)[NMeL]D-Piperidide; lactam N-11) | 2.5 ×10⁻⁶ cm/s | –
9 | CCCCN1CC(=O)N(C)[C@@H](CC(C)C)C(=O)N[C@@H](CC(C)C)C(=O)N(C)[C@@H](Cc2ccccc2)C(=O)N(C)[C@@H](C)C(=O)N[C@H](C(=O)N2CCCCC2)CC(=O)N[C@H](C(C)C)C(=O)N(C)[C@@H](Cc2ccccc2)C(=O)N[C@@H](CC(C)C)C(=O)N(C)[C@@H](CCN2CCC(F)(F)CC2)C(=O)N[C@@H]([C@@H](C)O)C1=O [pd394] ([dV][NMeF]L[X6]T[NBuGly][NMeL]L[NMeF][NMeA]D-Piperidide; lactam N-11) | 1.8 ×10⁻⁶ cm/s | –
10 | CCCCN1CC(=O)N(C)[C@@H](Cc2ccccc2)C(=O)N[C@@H](CC(C)C)C(=O)N(C)[C@@H](CC(C)C)C(=O)N[C@@H]([C@@H](C)O)C(=O)N(C)CC(=O)N(C)[C@@H](Cc2ccccc2)C(=O)N(C)[C@@H](CCN2CCC(F)(F)CC2)C(=O)N[C@@H](CC(C)C)C(=O)N(C)[C@@H](C(C)C)C(=O)N[C@H](C(=O)N2CCCCC2)CC1=O [pd395] ([NBuGly][NMeF]L[NMeL]T[Sar][NMeF][X6]L[NMeV]D-Piperidide; lactam N-11) | 1.7 ×10⁻⁶ cm/s | –
11 | CC(C)CCN1CC(=O)N(C)[C@@H](CC(C)C)C(=O)N[C@@H](COC(C)(C)C)C(=O)N(C)[C@@H](Cc2ccccc2)C(=O)N(C)[C@@H](C(C)C)C(=O)N[C@H](C(=O)N2CCCCC2)CC(=O)N[C@H](C)C(=O)N(C)[C@@H](CC(C)C)C(=O)N[C@@H](Cc2ccc(N(C)C)nc2)C(=O)N(C)[C@@H](CC(C)C)C(=O)N[C@@H]([C@@H](C)O)C1=O [pd396] ([dA][NMeL][3Pal(6-NMe2)][NMeL]T[N(isopentyl)Gly][NMeL]S(tBu)[NMeF][NMeV]D-Piperidide; lactam N-11) | 1.5 ×10⁻⁶ cm/s | –
12 | CC(C)C[C@@H]1NC(=O)[C@H](CC(C)C)N(C)C(=O)CCCN(C)C(=O)C[C@@H](C(=O)N2CCCCC2)NC(=O)[C@H](CC(C)C)N(C)C(=O)[C@H](CC(C)C)N(C)C(=O)[C@H]([C@@H](C)O)NC(=O)[C@H](CC(C)C)N(C)C(=O)[C@H](Cc2ccc(N(C)C)nc2)NC(=O)[C@H](Cc2ccccc2)N(C)C(=O)[C@H](CC(C)C)N(C)C1=O [pd397] ([NMeGABA][NMeL]L[NMeL][NMeF][3Pal(6-NMe2)][NMeL]T[NMeL][NMeL]D-Piperidide; lactam N-11) | 1.2 ×10⁻⁶ cm/s | –
13 | CCCCN1CC(=O)N(C)[C@@H](CC(C)C)C(=O)N[C@H](C(=O)N2CCCCC2)CC(=O)N(C)[C@@H](C)C(=O)N[C@@H](Cc2ccc(N(C)C)nc2)C(=O)N(C)[C@@H](CC(C)C)C(=O)N(C)[C@@H](Cc2ccccc2)C(=O)N[C@@H](CC(C)C)C(=O)N(C)[C@@H](C)C(=O)N(C)[C@@H](CC(C)C)C(=O)N[C@@H]([C@@H](C)O)C1=O [pd398] ([NMeA][3Pal(6-NMe2)][NMeL][NMeF]L[NMeA][NMeL]T[NBuGly][NMeL]D-Piperidide; lactam N-11) | – | 2.7 ×10⁻⁶ cm/s
14 | CCCCN1CC(=O)N(C)[C@@H](C)C(=O)N[C@H](C(=O)N2CCCCC2)CC(=O)N(C)[C@@H](C(C)C)C(=O)N[C@@H](CC(C)C)C(=O)N(C)[C@@H](CC(C)C)C(=O)N(C)[C@@H](Cc2cccc(Cl)c2)C(=O)N[C@@H](Cc2ccc(N(C)C)nc2)C(=O)N(C)[C@@H](C)C(=O)N(C)[C@@H](CC(C)C)C(=O)N[C@@H]([C@@H](C)O)C1=O [pd399] ([NMeV]L[NMeL][NMePhe(3-Cl)][3Pal(6-NMe2)][NMeA][NMeL]T[NBuGly][NMeA]D-Piperidide; lactam N-11) | 1.5 ×10⁻⁶ cm/s | –
15 | CCCCN1CC(=O)N(C)[C@@H](CC(C)C)C(=O)N[C@H](C(=O)N2CCCCC2)CC(=O)N(C)[C@@H](C)C(=O)N[C@@H](Cc2ccc(N(C)C)nc2)C(=O)N(C)[C@@H](C)C(=O)N(C)[C@@H](C)C(=O)N[C@@H](CC(C)C)C(=O)N(C)[C@@H](Cc2cccc(Cl)c2)C(=O)N(C)[C@@H](CC(C)C)C(=O)N[C@@H]([C@@H](C)O)C1=O [pd400] ([NMeA][3Pal(6-NMe2)][NMeA][NMeA]L[NMePhe(3-Cl)][NMeL]T[NBuGly][NMeL]D-Piperidide; lactam N-11) | 2.3 ×10⁻⁶ cm/s | –
16 | CCCOC[C@H]1C(=O)N[C@@H](Cc2ccc(N(C)C)nc2)C(=O)N(C)[C@@H](Cc2cccc(Cl)c2)C(=O)N(C)[C@@H](C)C(=O)N[C@@H]([C@@H](C)O)C(=O)N(CCC(C)C)CC(=O)N(C)[C@@H](C(C)C)C(=O)N[C@H](C(=O)N2CCCCC2)CC(=O)N(C)[C@@H](C)C(=O)N[C@@H](CC(C)C)C(=O)N(C)[C@@H](CC(C)C)C(=O)N1C [pd401] ([NMeA]L[NMeL][NMeS](Propyl)[3Pal(6-NMe2)][NMePhe(3-Cl)][NMeA]T[N(isopentyl)Gly][NMeV]D-Piperidide; lactam N-11) | 2.9 ×10⁻⁶ cm/s | –
17 | CCCCN1CC(=O)N(C)[C@@H](CC(C)C)C(=O)N[C@@H](Cc2ccc(N(C)C)nc2)C(=O)N(C)[C@@H](CC(C)C)C(=O)N[C@@H]([C@@H](C)O)C(=O)N(C)CC(=O)N(C)[C@@H](Cc2ccccc2)C(=O)N(C)[C@@H](CC(C)C)C(=O)N[C@@H](COCCC(C)C)C(=O)N(C)[C@@H](C)C(=O)N[C@H](C(=O)N2CCCCC2)CC1=O [pd402] ([NBuGly][NMeL][3Pal(6-NMe2)][NMeL]T[Sar][NMeF][NMeL]S(Isopentyl)[NMeA]D-Piperidide; lactam N-11) | 1 ×10⁻⁶ cm/s | –
